Columns and labels:
Format in all cases: functional
Rattus norvegicus [1] = test: The compound was examined for circling behavior (marginal activity) using automated videotracking system 30 min after intraperitoneal injection at the dose of 40 mg/Kg in 12 rats
Rattus norvegicus [2] = test: Effect was expressed as mortality after injection of kainic acid (10 mg/kg) and the drug at the dose of 40 mg/Kg after 48 hr
Rattus norvegicus [3] = test: Effect was expressed as mortality after injection of kainic acid (10 mg/kg) and the drug at the dose of 20 mg/Kg after 48 hr out of 19 animals
Rattus norvegicus [4] = test: The compound was tested for anticonvulsive activity expressed as seizure score after 4 hr of injection of kainic acid (10 mg/kg) and the drug at the dose of 40 mg/Kg in 15 rats
Rattus norvegicus [5] = test: The compound was tested for anticonvulsive activity expressed as seizure score after 4 hr of injection of kainic acid (10 mg/kg) and the drug at the dose of 20 mg/Kg in 15 rats
Rattus norvegicus [6] = test: The compound was examined for circling behavior (marginal activity) using automated videotracking system 30 min after intraperitoneal injection at the dose of 20 mg/Kg in 12 rats
Rattus norvegicus [7] = test: The compound was tested for anticonvulsive activity expressed as seizure score after 4 hr of injection of kainic acid (10 mg/kg) in 15 rats
Rattus norvegicus [8] = test: The compound was examined for circling behavior (marginal activity) using automated videotracking system 30 min after intraperitoneal injection at the dose of 5 mg/Kg in 12 rats

Structure (SMILES)	Absolute turn angular/3 min (Rattus norvegicus [1])	Mortality (Rattus norvegicus [2])	Mortality (Rattus norvegicus [3])	Seizure score (Rattus norvegicus [4])	Seizure score (Rattus norvegicus [5])	Absolute turn angular/3 min (Rattus norvegicus [6])	Seizure score (Rattus norvegicus [7])	Absolute turn angular/3 min (Rattus norvegicus [8])
C=CCN1CCC23CCCCC2C1Cc1ccc(OC)cc13 (configuration not stated)	282	6	6	2.2	2.9	224		
C=C(C)[C@H]1CN[C@H](C(=O)O)[C@H]1CC(=O)O [KAINIC ACID]							4.2	
CN1CCC23CCCCC2C1Cc1ccc(OCC2CC2)cc13 (configuration not stated)	202	2	3	1.3	1.8	160		
COc1ccc2c(c1)C13CCCCC1C(C2)NCC3 (configuration not stated)	258	4	4	2	2.4	186		
c1ccc(C2(N3CCCCC3)CCCCC2)cc1 [PHENCYCLIDINE]								420
Oc1ccc2c(c1)C13CCCCC1C(C2)NCC3 (configuration not stated)	262	4	5	2.1	2.5	194		
CN1CC[C@]23CCCC[C@H]2[C@H]1Cc1ccc(O)cc13 [LEVORPHANOL]	384	4	5	1.8	2.8	310		
C=CCOc1ccc2c(c1)C13CCCCC1C(C2)N(C)CC3 (configuration not stated)	219	3	3	1.5	1.9	168		
C=CCOc1ccc2c(c1)C13CCCCC1C(C2)N(CC1CC1)CC3 (configuration not stated)	250	4	4	2	2.8	172		
COc1ccc2c(c1)C13CCCCC1C(C2)N(C)CC3 (stereo not drawn) [RACEMETHORPHAN]	265	2	4	1.4	2.2	192		
C=CCN1CCC23CCCCC2C1Cc1ccc(OCC2CC2)cc13 (configuration not stated)	242	4	5	2.2	2.7	175		
C=CCOc1ccc2c(c1)C13CCCCC1C(C2)NCC3 (configuration not stated)	184	1	11	1	1.5	152		

Reference: ChEMBL document CHEMBL1134110, “Anticonvulsant effects of new morphinan derivatives” (2001)
